The text below walks through data of patent US20080311221A1, “LEWIS ACID AND OIL-SOLUBLE HYBRID PESTICIDE CONCENTRATE THAT SPONTANEOUSLY FORMS A WATER-BASED MICROEMULSION” (PBI/Gordon Corporation, priority 2007, published 2008).

Data set [1] can be described thus: Standard accelerated chemical stability test, HPLC of each active, 40° C. for thirty days. As to conditions: for Final percent concentration of active in concentrate: HPLC after 40° C. for thirty days, sealed container; for Initial percent concentration of active in concentrate: HPLC before storage, concentrate of Example 4 (so in the source); for % Diff: final vs initial, 40° C. for thirty days. The format is physicochemical. The method, then: Another sample of the concentrate Example 4 was subjected to a standard accelerated chemical stability test by conducting an HPLC analysis of each of the active ingredients to determine the percent concentration of each active in the concentrate. The sample was then placed in a sealed container and stored at 40° C. for thirty days. An HPLC analysis was repeated following the extended storage period. All are within accepted limits as established by U.S. EPA for pesticidal products.

Data set [2] in a line: Ambient storage stability test, HPLC, 25° C. for two and one-half months. It is filed as physicochemical. As to conditions: for Final percent concentration of active in concentrate: HPLC after 25° C. for two and one-half months; for Initial percent concentration of active in concentrate: HPLC before storage, concentrate of Example 4 (so in the source); for % Diff: final vs initial, 25° C. for two and one-half months. The procedure: A further sample of the concentrate of Example 4 was tested under ambient storage conditions at 25° C. for two and one-half months. The sample was initially subjected to an HPLC test, and then again tested at the end of the storage period.

For `Cc1nn(-c2cc(NS(C)(=O)=O)c(Cl)cc2Cl)c(=O)n1C(F)F` [Sulfentrazone], in data set [1], the “Final percent concentration of active in concentrate” value (“Final percent concentration” for short) is 0.363%, the “Initial percent concentration of active in concentrate” value (“Initial percent concentration” below) is recorded as 0.379% and the “% Diff” value is −4.22%. Besides, in data set [2], the “Final percent concentration” value was determined as 0.380%, the “Initial percent concentration” value was found to be 0.379% and the “% Diff” value worked out at 0.26%.

With `O=C(O)c1c(Cl)ccc2cc(Cl)cnc12` [Quinclorac], in data set [1], the “Final percent concentration” value was determined as 1.876%, the “Initial percent concentration” value is on record as 1.91% and the “% Diff” value is reported as −1.78%. Moreover, in data set [2], the “Final percent concentration” value stood at 1.929%, the “Initial percent concentration” value is listed as 1.91% and the “% Diff” value worked out at 0.99%.

Take `COc1c(Cl)ccc(Cl)c1C(=O)O` [Dicamba]: in data set [1], the “Final percent concentration” value is given as 1.091%, the “Initial percent concentration” value stood at 1.141% and the “% Diff” value is listed as −4.38%. Besides, in data set [2], the “Final percent concentration” value is recorded as 0.933%, the “Initial percent concentration” value is given as 0.946% and the “% Diff” value is −1.37%.

For the compound `CSC(=O)c1c(C(F)F)nc(C(F)(F)F)c(C(=O)SC)c1CC(C)C` [Dithiopyr], in data set [1], the “Final percent concentration” value was 1.909%, the “Initial percent concentration” value is listed as 1.977% and the “% Diff” value was −3.44%. Further, in data set [2], the “Final percent concentration” value was determined as 1.921%, the “Initial percent concentration” value is listed as 1.977% and the “% Diff” value is −2.83%.

Turning to `O=C(O)COc1ccc(Cl)cc1Cl` [2,4-D], in data set [1], the “Final percent concentration” value is 8.987%, the “Initial percent concentration” value is reported as 9.203% and the “% Diff” value is given as −2.35%. In data set [2], the “Final percent concentration” value was found to be 9.154%, the “Initial percent concentration” value came to 9.203% and the “% Diff” value is listed as −0.53%.
